#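 Values below derive from 48-hour exposures of cells grown in 96-well plates, with endpoints linearly interpolated between the two concentrations bracketing the appropriate inhibition level. Definition used: TGI = concentration required for complete inhibition of growth.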
# Experiments:
# Experiment in all cases: NCI tumour cell line growth inhibition, 48 h
# CCRF-CEM leukemia = tested on: CCRF-CEM leukemia
# KM12 colon = tested on: KM12 colon
# HCT-116 colon = tested on: HCT-116 colon
# OVCAR-8 ovarian = tested on: OVCAR-8 ovarian
# OVCAR-3 ovarian = tested on: OVCAR-3 ovarian
# MOLT-4 leukemia = tested on: MOLT-4 leukemia
# RXF 393 renal = tested on: RXF 393 renal
# DU-145 prostate = tested on: DU-145 prostate
# UACC-257 melanoma = tested on: UACC-257 melanoma
# A498 renal = tested on: A498 renal
# SR leukemia = tested on: SR leukemia
# NCI-H23 lung = tested on: NCI-H23 lung
SMILES,TGI (CCRF-CEM leukemia) [µM],TGI (KM12 colon) [µM],TGI (HCT-116 colon) [µM],TGI (OVCAR-8 ovarian) [µM],TGI (OVCAR-3 ovarian) [µM],TGI (MOLT-4 leukemia) [µM],TGI (RXF 393 renal) [µM],TGI (DU-145 prostate) [µM],TGI (UACC-257 melanoma) [µM],TGI (A498 renal) [µM],TGI (SR leukemia) [µM],TGI (NCI-H23 lung) [µM]
O=S1(=O)c2ccccc2N2CCCc3cc(Cl)cc1c32,> 100,> 100,> 100,> 100,> 100,> 100,51.3,> 100,> 100,> 100,> 100,
O=C1CC(O)c2c(Cl)sc(Cl)c21 (configuration not stated),4.68,> 22.7,13.8,14.2,12.9,> 20.9,12.2,54.8,27.7,42.6,20.7,35.6
Cc1nn(-c2ccccc2)c(C)c1/C=N/NC(=O)c1sc(=S)n(-c2ccccc2)c1N,> 100,> 100,34.5,> 100,> 100,> 100,4.36,> 100,> 100,59.3,> 100,> 100
CC1(C)C2CCC1C(=O)C(C=O)C2 (configuration not stated),> 100,> 100,> 100,> 100,> 100,> 100,> 100,> 100,> 100,> 100,79.6,> 100
CC(=O)Oc1ccc2c(c1)CC[C@@H]1C2[C@@H](O[N+](=O)[O-])C[C@@]2(C)C1CC[C@@H]2O (some centres not stated),> 83.2,> 100,> 100,> 86.7,> 86.9,> 85.8,> 100,> 87.2,> 100,72.5,> 88.1,> 100
O=[N+]([O-])C(=C(NCc1ccccc1)NCc1ccccc1)C(Cl)=C(Cl)Cl,50.7,47.7,> 100,> 100,69.2,52,98.4,> 100,82.4,> 100,57.8,96.9
CC1(C)N=C(N)N=C(N)N1c1cccc(CSc2ccccc2)c1,,> 100,> 100,> 100,> 100,> 100,95.9,> 100,> 100,> 100,14.2,> 100

# Source: PubChem BioAssay (NCI)
